One assay concerns the target CDK2/Cyclin E1 (Homo sapiens, UniProt P24941). In words: CDK2/Cyclin E1 Biochemical Assay (TR-FRET), 0.060 mM ATP. Particulars: 0.15 μM Rb (Ser780)-biotin substrate, pH7.0, 60 min preincubation, 120 min reaction, room temperature. An outline of the steps:
(§1)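 Inhibitor concentrations up to 10 μM were preincubated with each cyclin–kinase complex for 60 minutes before ATP and biotinylated Rb (Ser780) substrate (0.15 μM) were added. After 120 minutes at room temperature, phosphorylation was quantified by HTRF and IC50 values were fitted with a four-parameter logistic equation.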
For orientation: TR-FRET usually uses a lanthanide donor and a delayed reading to cut background.

The target of another assay is CDK1/Cyclin B1 (Homo sapiens, UniProt P06493). In words: CDK1/Cyclin B1 Biochemical Assay (TR-FRET), 0.015 mM ATP. The note with it: 0.15 μM Rb (Ser780)-biotin substrate, pH7.0, 60 min preincubation, 120 min reaction, room temperature. In a few lines: as §1
Sequence of CDK1/Cyclin B1 (P06493 whole entry): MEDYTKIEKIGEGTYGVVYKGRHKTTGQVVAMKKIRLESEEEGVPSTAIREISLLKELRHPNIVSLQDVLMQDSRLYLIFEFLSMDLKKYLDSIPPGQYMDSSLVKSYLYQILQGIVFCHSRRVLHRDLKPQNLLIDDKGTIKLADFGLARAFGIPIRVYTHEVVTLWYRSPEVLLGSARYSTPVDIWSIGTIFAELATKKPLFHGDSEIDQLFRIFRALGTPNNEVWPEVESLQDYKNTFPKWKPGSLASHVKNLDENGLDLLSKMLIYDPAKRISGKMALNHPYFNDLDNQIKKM
Sequence of CDK1/Cyclin B1 (P14635 whole entry partner): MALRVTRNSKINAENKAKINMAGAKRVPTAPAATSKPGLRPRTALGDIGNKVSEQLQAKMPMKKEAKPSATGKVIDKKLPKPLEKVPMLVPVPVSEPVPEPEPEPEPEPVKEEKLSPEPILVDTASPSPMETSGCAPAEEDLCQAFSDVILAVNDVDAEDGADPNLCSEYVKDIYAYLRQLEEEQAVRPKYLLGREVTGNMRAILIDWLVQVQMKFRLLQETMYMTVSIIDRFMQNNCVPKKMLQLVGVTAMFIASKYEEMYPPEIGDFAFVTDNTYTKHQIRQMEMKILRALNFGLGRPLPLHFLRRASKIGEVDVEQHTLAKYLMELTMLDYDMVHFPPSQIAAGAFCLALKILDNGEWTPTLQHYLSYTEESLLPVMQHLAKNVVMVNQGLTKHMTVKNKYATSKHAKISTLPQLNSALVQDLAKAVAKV

As for `CC(C)NC(=O)O[C@H]1C[C@@H](c2cc(Nc3cc4c(cc3F)S(=O)(=O)NC4)n[nH]2)C1` [Example 397, (1s,3s)-3-(3-((6-fluoro-1,1-dioxido-2,3-dihydrobenzo[d]isothiazol-5-yl)amino)-1H-pyrazol-5-yl)cyclobutyl isopropylcarbamate], the IC50 – broadly, the concentration at which inhibition is half-maximal – stood at 103 nM against CDK2/Cyclin E1 and 2020 nM at CDK1/Cyclin B1.
The corresponding values for `CN1c2ccc(Nc3cc([C@@H]4CC[C@H](OC(=O)NC(C)(C)CO)C4)[nH]n3)cc2CS1(=O)=O` (single isomer, unassigned) [Example 325a, cis-3-(3-((1-methyl-2,2-dioxido-1,3-dihydrobenzo[c]isothiazol-5-yl)amino)-1H-pyrazol-5-yl)cyclopentyl(1-hydroxy-2-methylpropan-2-yl)carbamate] are 1.6 nM and 23 nM.
The corresponding values for `CC1(NC(=O)O[C@H]2CC[C@@H](c3cc(Nc4ccc5c(c4)CS(=O)(=O)N5)n[nH]3)C2)CC1` (relative stereo) [Example 232, cis-3-(3-((2,2-dioxido-1,3-dihydrobenzo[c]isothiazol-5-yl)amino)-1H-pyrazol-5-yl)cyclopentyl(1-methylcyclopropyl)carbamate] are 12 nM and 27 nM.
`CC(C)NC(=O)O[C@H]1CC[C@@H](c2cc(Nc3ccc4c(c3)C3(CCC3)S(=O)(=O)N4)n[nH]2)C1` (relative stereo) [Example 199, cis-3-(3-((2,2-dioxido-1H-spiro[benzo[c]isothiazole-3,1′-cyclobutan]-5-yl)amino)-1H-pyrazol-5-yl)cyclopentyl isopropylcarbamate]: the IC50 against CDK2/Cyclin E1 was determined as 5.5 nM; on CDK1/Cyclin B1 it was 84 nM.
The corresponding values for `CC(C)NC(=O)O[C@H]1CC[C@@H](c2cc(Nc3ccc4c(c3F)CN(C3CCN(C)C(=O)C3)S4(=O)=O)n[nH]2)C1` (relative stereo) [Example 100, cis-3-(3-((4-fluoro-2-(1-methyl-2-oxopiperidin-4-yl)-1,1-dioxido-2,3-dihydrobenzo[d]isothiazol-5-yl)amino)-1H-pyrazol-5-yl)cyclopentyl isopropylcarbamate] are 5.2 nM and 236 nM.
As to `O=C(O[C@H]1CC[C@@H](c2cc(Nc3ccc4c(c3)CNS4(=O)=O)n[nH]2)C1)N1CCCC1` (relative stereo) [Example 174, cis-3-(3-((1,1-dioxido-2,3-dihydrobenzo[d]isothiazol-5-yl)amino)-1H-pyrazol-5-yl)cyclopentyl pyrrolidine-1-carboxylate], the IC50 against CDK2/Cyclin E1 was determined as 6.5 nM; on CDK1/Cyclin B1, 136 nM.
In the same order, the values of `CC(C)NC(=O)O[C@H]1CC[C@@H](c2cc(Nc3ccc4c(c3)CS(=O)(=O)N4CC3COC3)n[nH]2)C1` (relative stereo) [Example 210, cis-3-(3-((1-(oxetan-3-ylmethyl)-2,2-dioxido-1,3-dihydrobenzo[c]isothiazol-5-yl)amino)-1H-pyrazol-5-yl)cyclopentyl isopropylcarbamate] are 2.1 nM and 40 nM.
The corresponding values for `[2H]C([2H])([2H])N1Cc2c(ccc(Nc3cc([C@@H]4CC[C@H](OC(=O)NC5(C)CC5)C4)[nH]n3)c2F)S1(=O)=O` (single isomer, unassigned) [Example 132b, cis-3-(3-((4-fluoro-2-(methyl-d3)-1,1-dioxido-2,3-dihydrobenzo[d]isothiazol-5-yl)amino)-1H-pyrazol-5-yl)cyclopentyl(1-methylcyclopropyl)carbamate] are 1.9 nM and 65 nM.
In the same order, the values of `CC(=O)N1CC(N2Cc3c(ccc(Nc4cc([C@@H]5CC[C@H](OC(=O)NC(C)C)C5)[nH]n4)c3F)S2(=O)=O)C1` (relative stereo) [Example 90, cis-3-(3-((2-(1-acetylazetidin-3-yl)-4-fluoro-1,1-dioxido-2,3-dihydrobenzo[d]isothiazol-5-yl)amino)-1H-pyrazol-5-yl)cyclopentyl isopropylcarbamate] are 20 nM and 762 nM.
As for `COc1cc2c(cc1Nc1cc([C@@H]3CC[C@H](OC(=O)NC(C)C)C3)[nH]n1)CNS2(=O)=O` (relative stereo) [Example 15, cis-3-(3-((6-methoxy-1,1-dioxido-2,3-dihydrobenzo[d]isothiazol-5-yl)amino)-1H-pyrazol-5-yl)cyclopentyl isopropylcarbamate], the IC50 came to 23 nM against CDK2/Cyclin E1 and 1070 nM against CDK1/Cyclin B1.
In the same order, the values of `CCCNC(=O)O[C@H]1CC[C@@H](c2cc(Nc3ccc4c(c3F)C(C)NS4(=O)=O)n[nH]2)C1` (single isomer, unassigned) [Example 53a, cis-3-(3-((4-fluoro-3-methyl-1,1-dioxido-2,3-dihydrobenzo[d]isothiazol-5-yl)amino)-1H-pyrazol-5-yl)cyclopentyl propylcarbamate] are 6.3 nM and 367 nM.
In the same order, the values of `CC[C@H](C)NC(=O)O[C@H]1CC[C@@H](c2cc(Nc3ccc4c(c3F)CS(=O)(=O)N4)n[nH]2)C1` (single isomer, unassigned) [Example 383b] are 1.4 nM and 15 nM.
In the same order, the values of `CC(C)NC(=O)O[C@H]1CC[C@@H](c2cc(Nc3ccc4c(c3F)CN(CCC3CCOCC3)S4(=O)=O)n[nH]2)C1` (relative stereo) [Example 114, cis-3-(3-((4-fluoro-1,1-dioxido-2-(2-(tetrahydro-2H-pyran-4-yl)ethyl)-2,3-dihydrobenzo[d]isothiazol-5-yl)amino)-1H-pyrazol-5-yl)cyclopentyl isopropylcarbamate] are 9.6 nM and 596 nM.
As for `CC[C@H](C)NC(=O)O[C@H]1CC[C@@H](c2cc(Nc3ccc4c(c3F)CS(=O)(=O)N4CC(F)(F)F)n[nH]2)C1` (single isomer, unassigned) [Example 265a], the IC50 against CDK2/Cyclin E1 was determined as 1.6 nM; against CDK1/Cyclin B1 it was 41 nM.
In the same order, the values of `COCCN1Cc2ccc(Nc3cc([C@@H]4CC[C@H](OC(=O)NC(C)C)C4)[nH]n3)c(F)c2S1(=O)=O` (relative stereo) [Example 191, cis-3-(3-((7-fluoro-2-(2-methoxyethyl)-1,1-dioxido-2,3-dihydrobenzo[d]isothiazol-6-yl)amino)-1H-pyrazol-5-yl)cyclopentyl isopropylcarbamate] are 9.3 nM and 191 nM.
In the same order, the values of `Cc1c(Nc2cc([C@@H]3CC[C@H](OC(=O)NC(C)C)C3)[nH]n2)ccc2c1CN(CCO)S2(=O)=O` (relative stereo) [Example 37, cis-3-(3-((2-(2-hydroxyethyl)-4-methyl-1,1-dioxido-2,3-dihydrobenzo[d]isothiazol-5-yl)amino)-1H-pyrazol-5-yl)cyclopentyl isopropylcarbamate] are 7.2 nM and 313 nM.
Consider `CC1(NC(=O)O[C@H]2CC[C@@H](c3cc(Nc4ccc5c(c4F)CN(C4CC4)S5(=O)=O)n[nH]3)C2)CC1` (racemic) [Example 119, cis-3-(3-((2-cyclopropyl-4-fluoro-1,1-dioxido-2,3-dihydrobenzo[d]isothiazol-5-yl)amino)-1H-pyrazol-5-yl)cyclopentyl(1-methylcyclopropyl)carbamate], for which the IC50 was found to be 2.7 nM against CDK2/Cyclin E1 and 146 nM on CDK1/Cyclin B1.

The values above are taken from patent publication US20260297080A1, “BICYCLIC COMPOUNDS AS CDK INHIBITORS” (BeOne Medicines I GmbH, priority 2022, published 2026).
